The supplement of paper PMC10307832

Assays:
Assay in all cases: relative viability (nuclei count vs DMSO), 5 days (fraction); higher = more cells survive
Lestaurtinib + Foretinib = compound: C[C@]12O[C@H](C[C@]1(O)CO)n1c3ccccc3c3c4c(c5c6ccccc6n2c5c31)CNC4=O [Lestaurtinib] + COc1cc2c(Oc3ccc(NC(=O)C4(C(=O)Nc5ccc(F)cc5)CC4)cc3F)ccnc2cc1OCCCN1CCOCC1 [Foretinib] (partner 0.25 µM)
How it was run: (§1)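 One day after seeding in 1536-well plates, lung cancer cell lines were dosed by pin tool. Dosing was either single-drug or a fixed anchor-drug dose plus five library-drug doses (not always all listed) in √10 steps. After 5 days, nuclei were stained in one fix-and-stain step and counted on 4× images, and relative viability is the nuclei count of treated wells over that of vehicle wells, given as the median of duplicate plates.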

[1] = compound: C[C@]12O[C@H](C[C@]1(O)CO)n1c3ccccc3c3c4c(c5c6ccccc6n2c5c31)CNC4=O [Lestaurtinib] + CS(=O)(=O)N1CCN(Cc2cc3nc(-c4cccc5[nH]ncc45)nc(N4CCOCC4)c3s2)CC1 [Pictilisib] (partner 1 µM)
How it was run: as §1

TPCA-1 + OSI-027 = compound: C1=CC(=CC=C1C2=CC(=C(S2)NC(=O)N)C(=O)N)F [TPCA-1] + COc1cccc2cc(-c3nc([C@H]4CC[C@H](C(=O)O)CC4)n4ncnc(N)c34)[nH]c12 [OSI-027] (partner 0.5 µM)
How it was run: as §1

[2] = compound: C[C@]12O[C@H](C[C@]1(O)CO)n1c3ccccc3c3c4c(c5c6ccccc6n2c5c31)CNC4=O [Lestaurtinib] + CC(=O)c1c(C)c2cnc(Nc3ccc(N4CCNCC4)cn3)nc2n(C2CCCC2)c1=O [Palbociclib] (partner 0.5 µM)
How it was run: as §1

Cell Line	relative viability (Lestaurtinib + Foretinib; first compound 0.005 µM)	relative viability (Lestaurtinib + Foretinib; first compound 0.01581 µM)	relative viability (Lestaurtinib + Foretinib; first compound 0.05 µM)	relative viability (Lestaurtinib + Foretinib; first compound 0.1581 µM)	relative viability (Lestaurtinib + Foretinib; first compound 0.5 µM)	relative viability ([1]; first compound 0.005 µM)	relative viability ([1]; first compound 0.01581 µM)	relative viability ([1]; first compound 0.05 µM)	relative viability ([1]; first compound 0.1581 µM)	relative viability ([1]; first compound 0.5 µM)	relative viability (TPCA-1 + OSI-027; first compound 0.04 µM)	relative viability (TPCA-1 + OSI-027; first compound 0.1265 µM)	relative viability (TPCA-1 + OSI-027; first compound 0.4 µM)	relative viability (TPCA-1 + OSI-027; first compound 1.265 µM)	relative viability (TPCA-1 + OSI-027; first compound 4 µM)	relative viability ([2]; first compound 0.005 µM)	relative viability ([2]; first compound 0.01581 µM)	relative viability ([2]; first compound 0.05 µM)	relative viability ([2]; first compound 0.1581 µM)	relative viability ([2]; first compound 0.5 µM)
201T	1.13	1.21	1.17	1.14	0.356	0.677	0.691	0.64	0.601	0.533	0.781	0.751	0.782	0.669	0.484	0.398	0.45	0.364	0.405	0.399
A549	1.09	1.07	0.579	0.301	0.169	0.61	0.588	0.184	0.251	0.0856										
A-427	1.03	1.04	0.668	0.4	0.154	0.769	0.668	0.461	0.239	0.101	0.528	0.359	0.546	0.332	0.195	0.506	0.554	0.521	0.444	0.207
ABC-1	1.04	1.33	0.991	0.962	0.204	0.676	0.747	0.4	0.596	0.226	0.592	0.515	0.62	0.475	0.293	0.618	0.625	0.647	0.619	0.42
BEN	0.728	0.803	0.478	0.559	0.224	0.641	0.693	0.452	0.481	0.281	0.261	0.269	0.303	0.346	0.242	0.483	0.537	0.467	0.432	0.399
CAL-12T	1.25	1.22	1.03	1.13	0.696	0.392	0.716	0.388	0.413	0.292	0.678	0.614	0.664	0.523	0.185	0.365	0.526	0.409	0.302	0.183
COR-L23	1.03	0.908	0.8	0.825	0.391	0.688	0.723		0.332	0.208	0.749	0.706	0.823	0.683	0.286	0.337	0.319	0.223	0.248	0.11
COR-L 105	1.29	1.19	1.27	1.18	0.669	0.488	0.405	0.288	0.263	0.212	0.646	0.602	0.707	0.649	0.396	0.434	0.425	0.376	0.419	0.348
Calu-6	0.868	0.979	0.499	0.482	0.207	0.875	0.751	0.357	0.308	0.142										
